# Reference: ChEMBL document CHEMBL1129229, “Synthesis and trypanocidal activity of the bis-carba analogue of pentamidine” (1996)
# Test system: Mus musculus
# Assay: Effective dose against Trypanosoma brucei S427/118 infection in mice, administered ip after 24 hr
# Assay type: functional
row,SMILES,ED50
1,N=C(N)c1ccc(CCCCCCCc2ccc(C(=N)N)cc2)cc1,7.3 mg/kg
2,N=C(N)c1ccc(OCCCCCOc2ccc(C(=N)N)cc2)cc1 [PENTAMIDINE],0.38 mg/kg
